Reference: patent publication US5591758A, “Organic nitrates, processes for their preparation and their use in the treatment of cardiovascular diseases” (Laboratoires Hoechst, SA, priority 1991, dated 1997)
Counter-ions that a name gives are not always drawn.

Columns and labels:
thoracic aorta = test: Vasorelaxant effect on isolated vessels (rat thoracic aorta rings without endothelium, precontracted with noradrenalin); parameters: species or system Wistar rats; settings: for Emax: Rattus norvegicus, maximum inhibition of noradrenalin effect, 10^-8 to 10^-4 M substance, read-out: Maximum Relaxation; for IC50: rat aorta, 10^-7 M noradrenalin contraction
Procedure: Vasorelaxant effect of the compounds according to the invention on isolated vessels.
Adult Wistar rats weighing between 250 and 350 g are anaesthetised by intraperitoneal injection of sodium pentobarbital (30 mg/kg). The thoracic aorta is rapidly removed and placed in a refrigerated and oxygenated solution of bicarbonate buffer of the Krebs-Ringer type (composition [mM]: NaCl, 118; KCl, 4.7; CaCl2, 2.5; MgSO4, 1.2; KH2 PO4, 1.2; NaHCO3, 25.0; disodium calcium salt of EDTA, 0.026; glucose 11.1). The aorta is dissected with the aim of removing the connective tissue and then cut into 6 rings (length 5-10 mm). The endothelium is removed by moderate abrasion of the intimal surface of the aortic segments with the aid of a pair of tweezers. These segments are then placed between two hooks in an isolated organ cell filled with 25 ml of bicarbonate buffer (pH 7.4), thermostat-controlled at 37° C. and oxygenated with the aid of a 95% O2 /5% CO2 mixture (pH 7.4). One of the hooks is fixed to a fixed point, while the second is connected to a transducer with the aim of measuring the variations in isometric voltage (expressed in grams). After an equilibration period of 30 min., the segments are progressively withdrawn so as to attain the level of base voltage for which the contractor response to noradrenalin (10^-7 M) is maximum (optimum voltage; average 2 g). The absence of endothelium is verified by addition of a single concentration of acetylcholine (10^-6 M), after precontraction of the vessels by noradrenalin (10^-7 M). The integrity of the vascular smooth muscle is also verified by adding a single concentration of a vasodilator whose response is independent of the presence of the endothelium, SIN-1 (10^-5 M). After this initial procedure, the aortas are washed, equilibrated for a period of 30 min and then recontracted (10^-7 M noradrenalin). The relaxant effect of the substance to be tested is then evaluated by adding increasing concentrations of this substance (from 10^-8 to 10^-4 M). The maximum inhibition of the concentration caused by noradrenalin (expressed as a percentage) is then calculated ("maximum relaxation"). When this maximum relaxation is greater than 50%, the concentration of substance tested producing a 50% inhibition of the maximum contraction (IC50) is calculated. Table V below collates the IC50 and the maximum relaxation percentages for the various compounds tested.

anesthetised dogs = test: Haemodynamic effects on anesthetised dogs; assay type: in vivo, dogs (labrador/harrier cross); settings: dogs
Procedure: Haemodynamic effects of the compounds according to the invention on anesthetised pigs or dogs
The dogs, weighing between 16 and 26 kg, are the progeny of a labrador/harrier cross.
In the case of dogs the anesthesia is induced by sodium pentobarbitol (45 mg/jg i.v.) and maintained with an i.v. perfusion (flow rate of 8 mg/kg/h).
The pigs or dogs are placed under artificial respiration in ambient air. Analysis of the blood gases (pO2, pCO2) is carried out at regular intervals and oxygen can be supplied via the respirator, if necessary.
The haemodynamic parameters recorded include the left ventricular pressure (LVP; Millar PC350 Tip catheter inserted via the carotid artery), systemic blood pressure (BPs, BPd; full catheter in a femoral artery), the end pressure of the left ventricular diastole (LVEDP), the ventricular contractility (LVPdp/dtmax) and the heart rate (HR).
Following an equilibration period of the order of 45 minutes, the compounds studied are administered intraduodenally (i.d.) or intraveinously (i.v.) to several animals (1 to 4). The haemodynamic variables are recorded continuously for 1 to 3 hours, as a function of the period of action of the compound.
The effects of the compounds studied are shown as the absolute difference with respect to the base value (bv) measured before administration of the compounds and are shown in Table VII (a,b,c).
An antianginal activity is estimated by a fall in the BPs and the LVEDP (fall in venous return).

Row | Structure (SMILES) | Emax (thoracic aorta) [%] | IC50 (thoracic aorta) [µM] | BPs (min), period of action (anesthetised dogs; 3 mg/kg i.v.) [min] | BPs, difference to base value (anesthetised dogs; 3 mg/kg i.v.) [mmHg] | LVEDP (min), period of action (anesthetised dogs; 3 mg/kg i.v.) [min] | LVEDP, difference to base value (anesthetised dogs; 3 mg/kg i.v.) | BPs (min), period of action (anesthetised dogs; 10 mg/kg i.v.) [min] | BPs, difference to base value (anesthetised dogs; 10 mg/kg i.v.) [mmHg] | LVEDP (min), period of action (anesthetised dogs; 10 mg/kg i.v.) [min] | LVEDP, difference to base value (anesthetised dogs; 10 mg/kg i.v.) | also measured
1 | CC(C)(C)OC(=O)N1CCC[C@H]1C(=O)N[C@H]1CO[C@H]2[C@@H]1OC[C@@H]2O[N+](=O)[O-] [Compound 13, N-[(t-Butoxy)carbonyl]-L-proline amide of 5-amino-5-deoxy-2-O-nitro-1,4:3,6-dianhydro-L-iditol] | 74 | 49 |  |  |  |  |  |  |  |  | BPs (min), period of action (anesthetised dogs; 3 mg/kg i.d.): > 120 min; BPs, difference to base value (anesthetised dogs; 3 mg/kg i.d.): -30 mmHg
2 | O=C(N[C@H]1CO[C@H]2[C@@H]1OC[C@@H]2O[N+](=O)[O-])[C@@H]1CCCN1 [Compound 14, L-Proline amide of 5-amino-5-deoxy-2-O-nitro-1,4:3,6-dianhydro-L-iditol monohydrochloride] | 98 | 14 | > 90 | -10 | > 90 | -2,0 mmHg |  |  |  |  | 
3 | CC(C)(C)OC(=O)NCC(=O)N[C@H]1CO[C@H]2[C@@H]1OC[C@H]2O[N+](=O)[O-] [Compound 15, N-[(t-Butoxy)carbonyl]glycine amide of 2-amino-2-deoxy-5-O-nitro-1,4:3,6-dianhydro-D-glucitol] | 58 | 60 |  |  |  |  |  |  |  |  | BPs (min), period of action (anesthetised dogs; 3 mg/kg i.d.): > 180 min; BPs, difference to base value (anesthetised dogs; 3 mg/kg i.d.): -20 mmHg; LVEDP (min), period of action (anesthetised dogs; 3 mg/kg i.d.): > 180 min; LVEDP, difference to base value (anesthetised dogs; 3 mg/kg i.d.): -3,0 mmHg
4 | NCC(=O)N[C@H]1CO[C@H]2[C@@H]1OC[C@H]2O[N+](=O)[O-] [Compound 16, Glycine amide of 2-amino-2-deoxy-5-O-nitro-1,4:3,6-dianhydro-D-glucitol monohydrochloride] | 41 | > 100 |  |  |  |  | > 30 | -5 | > 30 | -1,0 mmHg | 
5 | CC(C)(C)OC(=O)N1CSC[C@H]1C(=O)O[C@H]1CO[C@H]2[C@@H]1OC[C@H]2O[N+](=O)[O-] [Compound 18, 2-O-[(3-t-Butoxycarbonyl-4-L-thiazolidinyl)carbonyl]-5-O-nitro-1,4:3,6-dianhydro-D-glucitol] | 75 | 72 |  |  |  |  | > 30 | -10 | > 30 | 3,0 mmHg | 
6 | O=C(O[C@H]1CO[C@H]2[C@@H]1OC[C@H]2O[N+](=O)[O-])[C@@H]1CSCN1 [Compound 19, 2-O-[(4-L-Thiazolidinyl)carbonyl]-5-O-nitro-1,4:3,6-dianhydro-D-glucitol monohydrochloride] | 40 | > 100 |  |  |  |  | > 60 | -35 | 0 | 0,0 mmHg | 
7 | CC(=O)NCSC[C@H](N)C(=O)O[C@H]1CO[C@H]2[C@@H]1OC[C@H]2O[N+](=O)[O-] [Compound 21, S-[(Acetylamino)methyl]-L-cysteine ester of 5-O-nitro-1,4:3,6-dianhydro-D-glucitol monohydrochloride] | 31 | 100 |  |  |  |  |  |  |  |  | BPs (min), period of action (anesthetised dogs; 3 mg/kg i.d.): > 60 min; BPs, difference to base value (anesthetised dogs; 3 mg/kg i.d.): -5 mmHg; LVEDP (min), period of action (anesthetised dogs; 3 mg/kg i.d.): > 60 min; LVEDP, difference to base value (anesthetised dogs; 3 mg/kg i.d.): -2,0 mmHg
8 | CC(C)(C)OC(=O)N1CSC[C@H]1C(=O)O[C@@H]1CO[C@H]2[C@@H]1OC[C@@H]2O[N+](=O)[O-] [Compound 24, 5-O-[(3-t-Butoxycarbonyl-4-L-thiazolidinyl)carbonyl]-2-O-nitro-1,4:3,6-dianhydro-D-glucitol] | 100 | 20 | > 30 | -10 | 10 | 1,0 mmHg |  |  |  |  | 
9 | O=C(O[C@@H]1CO[C@H]2[C@@H]1OC[C@@H]2O[N+](=O)[O-])[C@@H]1CSCN1 [Compound 25, 5-O-[(4-L-Thiazolidinyl)carbonyl]-2-O-nitro-1,4:3,6-dianhydro-D-glucitol monohydrochloride] | 35 | > 100 |  |  |  |  |  |  |  |  | BPs (min), period of action (anesthetised dogs; 10 mg/kg i.d.): > 60 min; BPs, difference to base value (anesthetised dogs; 10 mg/kg i.d.): -30 mmHg; LVEDP (min), period of action (anesthetised dogs; 10 mg/kg i.d.): > 60 min; LVEDP, difference to base value (anesthetised dogs; 10 mg/kg i.d.): -3,0 mmHg
10 | CC(=O)NCSC[C@H](NC(=O)OC(C)(C)C)C(=O)O[C@@H]1CO[C@H]2[C@@H]1OC[C@@H]2O[N+](=O)[O-] [Compound 26, S-[(Acetylamino)methyl]-N-[(t-butoxy)carbonyl]-L-cysteine ester of 2-O-nitro-1,4:3,6-dianhydro-D-glucitol] | 70 | 80 |  |  |  |  | > 90 | -10 | > 90 | 2,0 mmHg | 
11 | CC(=O)NCSC[C@H](N)C(=O)O[C@@H]1CO[C@H]2[C@@H]1OC[C@@H]2O[N+](=O)[O-] [Compound 27, S-[(Acetylamino)methyl]-L-cysteine ester of 2-O-nitro-1,4:3,6-dianhydro-D-glucitol monohydrochloride] | 14 | > 100 | > 90 | -15 | > 90 | -1,0 mmHg |  |  |  |  | 
12 | CC(C)(C)OC(=O)N[C@@H](CSSc1ccccc1[N+](=O)[O-])C(=O)N[C@H]1CO[C@H]2[C@@H]1OC[C@@H]2O[N+](=O)[O-] [Compound 35, S-[(2-Nitrophenyl)thio]-N-[(t-butoxy)carbonyl]-L-cysteine amide of 5-amino-5-deoxy-2-O-nitro-1,4:3,6-dianhydro-L-iditol] | 46 | 100 | > 30 | -10 | 0 | 0,0 mmHg |  |  |  |  | 
13 | CSCC[C@H](NC(=O)OC(C)(C)C)C(=O)N[C@H]1CO[C@H]2[C@@H]1OC[C@@H]2O[N+](=O)[O-] [Compound 37, N-[(t-Butoxy)carbonyl]-L-methionine amide of 5-amino-5-deoxy-2-O-nitro-1,4:3,6-dianhydro-L-iditol] | 100 | 13 |  |  |  |  | > 90 | -25 | 30 | -2,0 mmHg | 
14 | O=C(N[C@H]1CO[C@H]2[C@@H]1OC[C@H]2O[N+](=O)[O-])[C@@H]1CSCN1 [Compound 40, 2-[[(4-L-Thiazolidinyl)carbonyl]amino]-2-deoxy-5-O-nitro-1,4:3,6-dianhydro-D-glucitol monohydrochloride] | 38 | > 100 | > 90 | -10 | > 90 | -1,0 mmHg |  |  |  |  | 
15 | CC(=O)NCSC[C@H](NC(=O)OC(C)(C)C)C(=O)N[C@H]1CO[C@H]2[C@@H]1OC[C@H]2O[N+](=O)[O-] [Compound 41, S-[(Acetylamino)methyl]-N-[(t-butoxy)carbonyl]-L-cysteine amide of 2-amino-2-deoxy-5-O-nitro-1,4:3,6-dianhydro-D-glucitol] | 70 | 63 |  |  |  |  |  |  |  |  | BPs (min), period of action (anesthetised dogs; 3 mg/kg i.d.): > 180 min; BPs, difference to base value (anesthetised dogs; 3 mg/kg i.d.): -25 mmHg; LVEDP (min), period of action (anesthetised dogs; 3 mg/kg i.d.): 0 min; LVEDP, difference to base value (anesthetised dogs; 3 mg/kg i.d.): 0,0 mmHg
